# Source: US20260015333A1, “COMPOUNDS AND METHODS FOR INHIBITION OF THE EVOLUTION OF […]” (priority 2022, published 2026)
# How the values were obtained:
# Mfd = Mfd (Salmonella typhimurium, UniProt Q8ZQ01); experiment: Binding affinity analysis by microscale thermophoresis; set-up: species or system S. typhimurium; settings: labeled Mfd 50 nM
# Protocol: (§1) FIGS. 2A-2D depict how ARM-1 affects Mfd's biochemical activity. FIG. 2A depicts how the kd of ARM-1 was determined using microscale thermophoresis. Data shown represent a minimum of three independent experiments. FIG. 2B depicts a NADH-coupled ATPase assay. ATP hydrolysis by Mfd was coupled to NADH oxidation. Phosphoenolpyruvate is converted to pyruvate by pyruvate kinase, transferring a phosphate group onto ADP, which is only present in the reaction following ATP hydrolysis by Mfd. Pyruvate is then converted to lactate by lactate dehydrogenase, oxidizing NADH to NAD^+. Absorbance at 340 nm by NADH is used to monitor the reaction. Data shown represent a minimum of 3 biological replicates. FIG. 2C depicts a transcription roadblock assay. A P32-labled 176 bp PCR fragment was incubated with E. coli RNAP along with saturating concentrations of ATP, GTP, and UTP. 100 nM S. typhimurium ST19 Mfd preincubated with indicated concentrations of ARM-1 was added and the reaction allowed to proceed for 6 minutes. DNA products were then resolved on a polyacrylamide gel and analyzed by phosphorimaging. […] Quantification of these gels is shown below each lane. […]
# Microscale thermophoresis was performed on a Monolith (NanoTemper). […] MST experiments were performed under default settings apart from fluorescence intensity set to 100%. […]
# S. typhimurium ST19 Mfd = experiment: RNAP displacement (transcription roadblock) assay; assay type: biochemical; settings: Mfd 100 nM pre-incubated with ARM-1 (12.5 μM); without ARM-1 EC/IC=0.33
# Protocol: as §1
# Mfd translocates along double-stranded DNA and dislodges stalled RNAP complexes. […] When quantified, a ratio of EC to IC of approximately 1 was observed, which was consistent with prior work. […]
# S. typhimurium ST19 = experiment: Luria-Delbruck fluctuation assay; assay type: cell-based; settings: 100 μM ARM-1, plated on 80 ng/ml ciprofloxacin
# Protocol: FIGS. 3A-3C depict how ARM-1 reduces mutation frequency in culture and during infection. FIG. 3A depicts a Luria-Delbruck fluctuation assay with ARM-1 treatment. Single colonies of WT and Δmfd S. typhimurium ST19 were used to inoculate overnight cultures with appropriate antibiotic selection. Cultures were then diluted back to OD600 0.0005 and grown to OD600 0.5 with or without 100 μM ARM-1 treatment. Samples were plated on 80 ng/ml ciprofloxacin and grown overnight, then enumerated the following day. Data shown are the result of a minimum of 50 replicates. FIG. 3B depicts the invasion and infection efficiency in the presence of ARM-1. WT S. typhimurium ST19 in mid-log phase growth was used to infect HeLa cells. Invasion was allowed to proceed for 1 hour before uninternalized bacteria were removed and fresh media applied, containing vehicle control or 31.25 μM ARM-1. At the indicated timepoints, HeLa cells were lysed using 1% Triton-H2O and intracellular bacteria serially diluted and plated on LB for CFU enumeration. FIG. 3C depicts mutation frequency post mammalian cell infection. WT and Δmfd S. typhimurium ST19 were used to infect HeLa cells as described in FIG. 3B. Following infection, intracellular bacteria were harvested and plated on 50 μg/mL 5-fluorocytosine and grown overnight. Mutants were enumerated the following morning. […]
# Mfd, sequence (Q8ZQ01 entry or part of it): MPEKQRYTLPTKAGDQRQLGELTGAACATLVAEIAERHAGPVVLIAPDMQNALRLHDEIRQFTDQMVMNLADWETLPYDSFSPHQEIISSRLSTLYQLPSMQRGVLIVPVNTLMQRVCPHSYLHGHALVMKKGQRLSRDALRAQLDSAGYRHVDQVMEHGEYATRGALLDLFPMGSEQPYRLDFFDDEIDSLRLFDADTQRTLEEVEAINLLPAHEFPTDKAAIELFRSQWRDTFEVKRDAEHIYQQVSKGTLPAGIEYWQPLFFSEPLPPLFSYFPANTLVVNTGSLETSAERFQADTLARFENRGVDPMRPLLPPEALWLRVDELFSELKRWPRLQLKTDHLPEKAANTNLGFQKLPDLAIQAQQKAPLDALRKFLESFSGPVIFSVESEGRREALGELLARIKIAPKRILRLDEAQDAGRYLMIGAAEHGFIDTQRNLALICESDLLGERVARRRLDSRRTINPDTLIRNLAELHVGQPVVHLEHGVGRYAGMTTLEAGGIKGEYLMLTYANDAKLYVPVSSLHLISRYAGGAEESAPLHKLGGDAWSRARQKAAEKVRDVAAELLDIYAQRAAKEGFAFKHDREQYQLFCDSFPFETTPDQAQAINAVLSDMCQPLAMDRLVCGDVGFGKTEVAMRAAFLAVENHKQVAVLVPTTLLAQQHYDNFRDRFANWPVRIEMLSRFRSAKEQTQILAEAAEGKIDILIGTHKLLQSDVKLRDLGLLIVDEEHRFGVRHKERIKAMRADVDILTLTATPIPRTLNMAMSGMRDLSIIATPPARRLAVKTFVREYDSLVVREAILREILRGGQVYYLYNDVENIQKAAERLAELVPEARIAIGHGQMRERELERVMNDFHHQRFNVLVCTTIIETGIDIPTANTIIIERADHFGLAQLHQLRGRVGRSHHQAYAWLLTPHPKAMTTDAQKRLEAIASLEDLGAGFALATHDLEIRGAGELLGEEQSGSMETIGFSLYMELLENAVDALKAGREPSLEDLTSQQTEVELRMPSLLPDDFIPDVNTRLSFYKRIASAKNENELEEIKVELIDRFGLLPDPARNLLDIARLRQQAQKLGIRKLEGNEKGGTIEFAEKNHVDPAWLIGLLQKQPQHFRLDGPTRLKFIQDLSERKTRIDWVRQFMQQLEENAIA
smiles,measurement,setting,value
"Cc1cc(Br)ccc1-c1ccc(CNCCCN(C)C)o1 [ARM-1, N^1-((5-(4-bromo-2-methylphenyl)furan-2-yl)methyl)-N^3,N^3-dimethylpropane-1,3-diamine]",Kd,Mfd,4.25 µM
same,EC/IC (elongation complex to initiation complex ratio),S. typhimurium ST19 Mfd,0.46
same,reduction in WT mutation frequency,S. typhimurium ST19,3 fold
